Tests used:
[1] = Phase II clinical trial of RO4588161: premature withdrawal for safety reasons; format: in vivo, human; details: among the 104 evaluable patients
Description: A screening period (time from the first screening assessment to the first administration of test drug) of 35 days preceded the treatment portion of the trial (FIG. 1). The HCV genotype and HCV RNA titer of each patient was confirmed during the screening period and only treatment-naïve patients with HCV genotype-1 and HCV RNA titer ≧50,000 IU/mL were eligible for enrollment.
One hundred and seven male and female patients between 18 and 66 years of age were enrolled into the study.

HCV = details: monotherapy; cited from earlier work

CC(C)C(=O)OC[C@@]1(N=[N+]=[N-])O[C@@H](n2ccc(N)nc2=O)[C@H](OC(=O)C(C)C)[C@@H]1OC(=O)C(C)C [RO4588161, Isobutyric acid (2R,3S,4R,5R)-5-(4-amino-2-oxo-2H-pyrimidin-1-yl)-2-azido-3,4-bis-isobutyryloxy-tetrahydro-furan-2-ylmethyl ester]
patients who prematurely withdrew for safety reasons from treatment [1]: 43 patients

NC(=O)c1ncn([C@@H]2O[C@H](CO)[C@@H](O)[C@H]2O)n1 [ribavirin, 1-((2R,3R,4S,5R)-3,4-Dihydroxy-5-hydroxymethyl-tetrahydro-furan-2-yl)-1H-[1,2,4]triazole-3-carboxylic acid amide]
effect on serum levels of HCV-RNA (HCV): does not lower serum levels of HCV-RNA | patients with serum amino transferase levels reduced to normal (HCV): 40% | patients who prematurely withdrew for safety reasons from treatment [1]: 5 patients
